Assay results from article PMC5447021, “TNF Lectin-Like Domain Restores Epithelial Sodium Channel Function in Frameshift Mutants Associated with Pseudohypoaldosteronism Type 1B” (Frontiers in Immunology, 2017).
Entries after “also recorded” stand apart in the source; their conditions may differ.

Legend:
rat lung transplantation = settings: instilled intratracheally into rats prior to lung transplantation; cited from earlier work
Excerpt: Like TNF, TIP peptide can influence regulation of alveolar fluid balance.

α-ENaC (WT αβγ-ENaC) = settings: HEK-293, 5 and 10 min; returns after 1 h; cited from earlier work
[1] = test system: αP197fs (co-expressed with βγ-ENaC); assay: Whole-cell patch clamp, αP197fs + WT βγ; assay type: cell-based, human; settings: read-out: EC50, solnatide, HEK-293, whole-cell, -100 mV, n = 5, p < 0.001 vs WT
Protocol: Point mutations of α-, β-, γ- and δ-hENaC and PHA1B frameshift mutations of α-hENaC were prepared with the QuikChange Lightning Site-Directed Mutagenesis Kit (Agilent Technologies, CA, USA). Mutagenic primers were designed individually with the Primer Design Program provided on the producer’s website or for the frameshift mutations the same base changes as reported in patients (see Table 2) were performed. Primers were ordered from Sigma-Aldrich, Vienna, Austria.
HEK-293 cells were transfected 1 day after cell seeding using X-tremeGENE HP DNA transfection reagent (Roche Diagnostics, Mannheim, Germany) according to the manufacturer’s protocol. A set of WT or mutant αβγ- or δβγ-hENaC, or α-, β-, γ-, or δ-hENaC alone was used, and the ratio of DNA to transfection reagent was 1:3. The expression was highest 48–72 h after transfection.
Electrophysiological experiments were performed as described in detail by Shabbir et al. ([16]). […] Currents were recorded with the patch clamp method in the whole-cell mode. The chamber contained 1 ml of the bath solution of the following composition (in mM): 145 NaCl, 2.7 KCl, 1.8 CaCl2, 2 MgCl2, 5.5 glucose, and 10 HEPES, adjusted to pH 7.4 with 1 M NaOH solution. Micropipettes were pulled from thin-walled borosilicate glass capillaries (Harvard Apparatus, Holliston, MA, USA) with a DMZ Zeitz Puller to obtain electrode resistances ranging from 2 to 5 MΩ. […]

αR448fsβγ-ENaC = molecular target: T1, αR448fsβγ-ENaC (Homo sapiens, UniProt P37088+P51168+P51170); assay: Whole-cell patch clamp, αR448fs + WT βγ; assay type: cell-based; settings: αR448fsβγ preincubated with 100 units PNGase F; 200 nM solnatide or 20 nM TNF; n = 3
T1 construct: expressed in transfected cells; host or cells: HEK-293
Protocol: Currents were recorded with the patch clamp method in the whole-cell mode. […] Chemicals for pipette and bathing solutions were supplied by Sigma-Aldrich (Vienna, Austria). Electrophysiological measurements were carried out with an Axopatch 200B patch clamp amplifier (Axon Instruments, CA, USA).

T1 sequence (P37088 with tags, fused parts or gaps): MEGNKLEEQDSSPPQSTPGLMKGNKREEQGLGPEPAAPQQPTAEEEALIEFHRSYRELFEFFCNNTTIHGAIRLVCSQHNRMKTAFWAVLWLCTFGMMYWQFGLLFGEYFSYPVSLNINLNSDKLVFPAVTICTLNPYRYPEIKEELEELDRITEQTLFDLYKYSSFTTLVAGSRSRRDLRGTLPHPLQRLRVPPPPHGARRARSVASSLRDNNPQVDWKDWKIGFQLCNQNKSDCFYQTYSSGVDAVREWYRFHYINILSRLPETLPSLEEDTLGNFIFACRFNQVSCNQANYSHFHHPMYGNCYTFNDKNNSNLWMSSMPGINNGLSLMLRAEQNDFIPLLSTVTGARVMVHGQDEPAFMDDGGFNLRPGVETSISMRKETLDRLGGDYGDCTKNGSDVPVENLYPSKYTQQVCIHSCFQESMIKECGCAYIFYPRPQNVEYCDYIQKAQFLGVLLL
T1 sequence (P51168 whole entry partner): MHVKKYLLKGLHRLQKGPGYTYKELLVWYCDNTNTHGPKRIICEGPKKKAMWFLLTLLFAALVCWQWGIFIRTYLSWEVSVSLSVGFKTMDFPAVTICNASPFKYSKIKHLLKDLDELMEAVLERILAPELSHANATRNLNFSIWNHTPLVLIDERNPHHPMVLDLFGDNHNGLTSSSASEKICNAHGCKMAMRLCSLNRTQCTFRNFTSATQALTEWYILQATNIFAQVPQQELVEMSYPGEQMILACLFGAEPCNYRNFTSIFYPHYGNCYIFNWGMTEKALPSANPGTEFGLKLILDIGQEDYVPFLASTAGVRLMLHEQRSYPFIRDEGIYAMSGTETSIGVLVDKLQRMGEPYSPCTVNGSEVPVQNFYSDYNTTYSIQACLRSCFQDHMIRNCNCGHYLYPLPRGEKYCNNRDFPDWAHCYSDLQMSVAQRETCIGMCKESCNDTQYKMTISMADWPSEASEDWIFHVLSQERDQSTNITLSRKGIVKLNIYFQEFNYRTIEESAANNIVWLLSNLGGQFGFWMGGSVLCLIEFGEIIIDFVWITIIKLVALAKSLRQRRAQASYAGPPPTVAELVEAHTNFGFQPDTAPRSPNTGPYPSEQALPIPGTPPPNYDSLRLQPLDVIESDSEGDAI
T1 sequence (P51170 whole entry partner): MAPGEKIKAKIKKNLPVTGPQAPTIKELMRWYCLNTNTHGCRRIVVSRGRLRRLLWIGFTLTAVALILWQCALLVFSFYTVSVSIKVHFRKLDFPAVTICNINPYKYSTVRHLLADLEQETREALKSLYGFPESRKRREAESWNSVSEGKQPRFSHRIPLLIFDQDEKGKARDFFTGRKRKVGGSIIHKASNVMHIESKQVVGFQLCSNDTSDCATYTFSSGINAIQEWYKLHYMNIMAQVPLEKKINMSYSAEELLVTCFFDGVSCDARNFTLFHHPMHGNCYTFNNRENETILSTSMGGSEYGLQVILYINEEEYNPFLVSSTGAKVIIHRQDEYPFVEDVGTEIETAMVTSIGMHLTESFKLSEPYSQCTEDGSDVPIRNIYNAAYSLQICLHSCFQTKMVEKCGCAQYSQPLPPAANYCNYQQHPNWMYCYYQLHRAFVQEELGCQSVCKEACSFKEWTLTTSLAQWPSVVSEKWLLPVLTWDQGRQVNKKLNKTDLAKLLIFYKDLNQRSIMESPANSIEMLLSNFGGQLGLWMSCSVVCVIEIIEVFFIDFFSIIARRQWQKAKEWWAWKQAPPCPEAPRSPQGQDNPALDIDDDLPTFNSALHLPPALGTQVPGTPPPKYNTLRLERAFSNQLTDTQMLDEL

## C[C@@H]1NC(=O)CNC(=O)[C@H](CCC(=O)O)NC(=O)[C@@H]2CCCN2C(=O)[C@H]([C@@H](C)O)NC(=O)[C@H](CCC(=O)O)NC(=O)[C@H](CCCNC(=N)N)NC(=O)[C@H](CCC(N)=O)NC(=O)CNC(=O)[C@@H](N)CSSC[C@@H](C(=O)O)NC(=O)[C@H](Cc2ccc(O)cc2)NC(=O)[C@H](Cc2c[nH]c3ccccc23)NC(=O)[C@@H]2CCCN2C(=O)[C@H](CCCCN)NC(=O)[C@H](C)NC(=O)[C@H](CCC(=O)O)NC1=O [solnatide, L-cysteine, L-cysteinylglycyl-L-glutaminyl-L-arginyl-L-α-glutamyl-L-threonyl-L-prolyl-L-α-glutamylglycyl-L-alanyl-L-α-glutamyl-L-alanyl-L-lysyl-L-prolyl-L-tryptophyl-L-tyrosyl-, cyclic (1→17)-disulfide]
Rat lung transplantation
  Lung function: significantly improved lung function
α-ENaC (WT αβγ-ENaC)
  Membrane abundance, solnatide: significant statistically
[1]
  EC50: 0.084 ± 0.0049 µM
αR448fsβγ-ENaC
  Current activation after PNGase F: no current could be induced; also recorded: neither TNF nor solnatide potentiated amiloride-sensitive current in αR448fsβγ-ENaC following PNGase F treatment
